The assay concerns the target T1, DDR2 T654M (Homo sapiens, UniProt Q16832, T654M).
T1 construct: purchased Thermo Fisher Scientific (Life Technologies) SelectScreen
Kind of assay: SelectScreen LanthaScreen. The note with it: read-out: % displacement. In kind it is binding. In outline: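 SelectScreen broad panel; activity (Z'LYTE, Adapta) plus binding formats. ATP: Km app for CSF1R Z'LYTE; 10 for CAMK1 Adapta. Readout = % per kinase.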
On the technique in general: In TR-FRET formats the signal depends on donor and acceptor labels being close together.

From PMC6934184, “Selective DNA-PKcs inhibition extends the therapeutic index of localized radiotherapy and chemotherapy” (The Journal of Clinical Investigation, 2019) come the findings set out here.

The structures appear in SMILES notation.

T1 sequence (Q16832 22-855 T654M): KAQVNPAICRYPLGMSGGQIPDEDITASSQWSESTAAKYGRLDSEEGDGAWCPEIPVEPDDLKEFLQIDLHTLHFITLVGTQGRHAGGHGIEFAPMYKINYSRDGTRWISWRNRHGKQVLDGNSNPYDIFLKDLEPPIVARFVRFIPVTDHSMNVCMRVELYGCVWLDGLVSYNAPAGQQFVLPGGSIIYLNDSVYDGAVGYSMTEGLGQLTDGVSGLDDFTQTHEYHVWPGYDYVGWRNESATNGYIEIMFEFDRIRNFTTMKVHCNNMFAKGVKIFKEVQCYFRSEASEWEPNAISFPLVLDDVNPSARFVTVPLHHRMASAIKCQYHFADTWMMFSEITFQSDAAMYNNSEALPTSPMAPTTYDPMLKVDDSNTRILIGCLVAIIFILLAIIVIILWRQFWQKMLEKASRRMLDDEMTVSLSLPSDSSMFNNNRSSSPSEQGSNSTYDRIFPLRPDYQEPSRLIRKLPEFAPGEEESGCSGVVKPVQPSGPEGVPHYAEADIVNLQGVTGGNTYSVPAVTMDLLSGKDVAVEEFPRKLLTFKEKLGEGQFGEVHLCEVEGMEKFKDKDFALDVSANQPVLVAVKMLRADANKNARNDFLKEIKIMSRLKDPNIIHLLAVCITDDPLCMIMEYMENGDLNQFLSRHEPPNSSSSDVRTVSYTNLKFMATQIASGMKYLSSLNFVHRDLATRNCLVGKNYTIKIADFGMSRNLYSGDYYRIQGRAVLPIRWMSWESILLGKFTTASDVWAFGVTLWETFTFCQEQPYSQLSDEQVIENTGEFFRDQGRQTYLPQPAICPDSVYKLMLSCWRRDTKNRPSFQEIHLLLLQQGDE

With `CN(C(=O)CN1CCOCC1)c1ccc2sc3c(-c4cccc5c(=O)cc(N6CC7CCC(C6)O7)oc45)cccc3c2c1` [NU5455], the inhibition at 1 µM worked out at 2.5%.
